Data on 41 compounds can be found in patent US12227509B2, “Dihydropyrazolopyrazinone derivative having MGAT2 inhibitory activity” (Shionogi & Co., Ltd., priority 2019, dated 2025).

Sequence of recombinant human MGAT2 (Q3SYC2 whole entry): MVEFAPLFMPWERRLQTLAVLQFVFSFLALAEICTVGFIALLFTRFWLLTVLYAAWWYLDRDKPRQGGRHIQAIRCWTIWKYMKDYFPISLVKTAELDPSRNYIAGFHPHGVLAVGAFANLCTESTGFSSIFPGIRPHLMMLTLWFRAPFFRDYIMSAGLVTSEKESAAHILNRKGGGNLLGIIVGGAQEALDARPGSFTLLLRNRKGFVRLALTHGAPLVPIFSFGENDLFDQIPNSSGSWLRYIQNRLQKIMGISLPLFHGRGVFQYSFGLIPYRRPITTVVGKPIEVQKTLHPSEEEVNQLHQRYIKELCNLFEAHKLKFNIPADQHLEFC

This test has as its target recombinant human MGAT2 (Homo sapiens (Human), UniProt Q3SYC2). Nature of the test: Measurement of human MGAT2 inhibitory activity. The test is classed as biochemical. Conditions: concentration exhibiting 50% enzyme inhibition; recombinant human MGAT2, 2-Oleoylglycerol/Oleoyl-CoA. The procedure:
A full-length human MGAT2 gene to which a Flag-tag had been added at the N-terminal was inserted into pFastBac (from Invitrogen). A recombinant baculovirus was produced in accordance with the protocol for a Bac-to-Bac baculovirus expression system (produced by Invitrogen), and Sf-9 cells were infected therewith. The cells were collected and sonicated, and then the membrane fraction was collected through centrifugation. Western blotting analysis with an anti-Flag antibody was performed for the membrane fraction to confirm expression, and the membrane fraction was used as a recombinant human MGAT2 enzyme solution.
Solutions of the compounds of the present invention in DMSO were each aliquoted into 0.2-μL portions in a 384-well polystyrene microplate produced by Corning Incorporated, and 5 μL of an enzyme solution prepared with an assay buffer (100 mmol/L phosphate buffer (pH 7.4) containing 2 mmol/L DTT) and 5 μL of a substrate solution (100 mmol/L phosphate buffer (pH 7.4), 30 μmol/L 2-Oleoylglycerol, 10 μmol/L Oleoyl-CoA) were added thereto, and the resultant was stirred and centrifuged, and incubated in a moist chamber at room temperature for 1 hour. After enzymatic reaction, 50 μL of a quenching solution (containing 0.2 μmol/L Diolein-d5, 0.4% formic acid, and 50% isopropanol) containing Internal Standard (IS) was added to terminate the reaction, and the resultant was sealed in a plate produced by Shimadzu GLC Ltd., and then stirred and centrifuged, and measurement was performed by using an electrospray ionization method with a RapidFire360 and Agilent 6550 Q-TOF mass spectrometer. Diolein as a reaction product (P) of 2-Oleoylglycerol as the substrate and an ammonium adduct ion of the IS were detected, and the peak intensity ratio, P/IS, was calculated from the peak heights to evaluate the inhibitory activity. Inhibitory activities with/without addition of enzyme were defined as Control (+)/Control (−), respectively, and the respective % inhibitions were defined as 0% inhibition and 100% inhibition. The inhibitory activity was calculated from formula below with TIBCO Spotfire (produced by TIBCO Software Inc.)
Inhibitory activity (%)=[1−{Sample−Control (−)}/{Control (+)−Control (−)}]*100 where Sample indicates a peak intensity ratio: P/IS, when the compound of the present invention was added.
For orientation: IC50 means the concentration that gives 50% inhibition. Turning to `CS(=O)(=O)CC(=O)Nc1c(-c2ccc(S(C)(=O)=O)cc2)nn2c1C(=O)N[C@@]1(CCc3cc(OCC(F)(F)F)ccc31)C2` [Compound I-48], the IC50 amounted to 419 nM.

In the case of `CC(C)c1ccc(-c2nn3c(c2NC(=O)CS(C)(=O)=O)C(=O)N[C@@]2(CCc4cc(OCC(F)(F)F)ccc42)C3)cc1` [Compound I-49], the IC50 stood at 4.79 nM.

As for `CS(=O)(=O)CC(=O)Nc1c(-c2cc(F)cc(F)c2)nn2c1C(=O)N[C@@]1(CCc3cc(OCC(F)(F)F)ccc31)C2` [Compound I-50], the concentration for half-maximal inhibition (IC50) turned out to be 2.53 nM.

`CS(=O)(=O)CC(=O)Nc1c(-c2ccc(C#N)c(F)c2)nn2c1C(=O)N[C@@]1(CCc3cc(OCC(F)(F)F)ccc31)C2` [Compound I-51]: the 50% inhibitory concentration (IC50) stood at 1.32 nM.

As to `COc1ccc(-c2nn3c(c2NC(=O)CS(C)(=O)=O)C(=O)N[C@@]2(CCc4cc(OCC(F)(F)F)ccc42)C3)cc1F` [Compound I-52], the concentration for half-maximal inhibition (IC50) was 15.2 nM.

As to `Cc1c(F)cc(-c2nn3c(c2NC(=O)CS(C)(=O)=O)C(=O)N[C@@]2(CCc4cc(OCC(F)(F)F)ccc42)C3)cc1F` [Compound I-53], the IC50 turned out to be 1.75 nM.

Consider `COCOc1ccc2c(c1)CCC21Cn2nc(-c3ccc(C#N)cn3)c(NC(=O)CS(C)(=O)=O)c2C(=O)N1` (centres unmarked) [Compound I-54], for which the concentration for half-maximal inhibition (IC50) worked out at 5.88 nM.

As for `Cc1ccc(-c2nn3c(c2NC(=O)CS(C)(=O)=O)C(=O)NC2(CCc4cc(OCc5ccccc5)ccc42)C3)nc1` (centres unmarked) [Compound I-55], the IC50 is 1 nM.

With `CS(=O)(=O)CC(=O)Nc1c(-c2ccc(C3CC3)cn2)nn2c1C(=O)N[C@]1(CCc3cc(OCC(F)(F)F)ccc31)C2` [Compound I-56], the IC50 came to 1.03 nM.

`CS(=O)(=O)CC(=O)Nc1c(-c2ccc(C3CC3)cn2)nn2c1C(=O)N[C@@]1(CCc3cc(OCC(F)(F)F)ccc31)C2` [Compound I-57]: the IC50 worked out at 1.14 nM.

Regarding `CS(=O)(=O)CC(=O)Nc1c(-c2ccc(Cl)cn2)nn2c1C(=O)N[C@]1(CCc3cc(OCC(F)(F)F)ccc31)C2` [Compound I-59], the 50% inhibitory concentration (IC50) is 0.48 nM.

For the compound `CS(=O)(=O)CC(=O)Nc1c(-c2ccc(Cl)cn2)nn2c1C(=O)N[C@@]1(CCc3cc(OCC(F)(F)F)ccc31)C2` [Compound I-60], the IC50 was 0.527 nM.

In the case of `CS(=O)(=O)CC(=O)Nc1c(CCC2CC2)nn2c1C(=O)NC1(CN(c3ccc(C(F)(F)F)cc3)C1)C2` [Compound I-64], the IC50 turned out to be 1.26 nM.

For the compound `Cc1ccc(-c2nn3c(c2NC(=O)CS(C)(=O)=O)C(=O)NC2(CN(c4ccc(C(F)(F)F)cc4)C2)C3)nc1` [Compound I-65], the IC50 was determined as 0.935 nM.

`CS(=O)(=O)CC(=O)Nc1c(-c2ccc(F)c(F)c2)nn2c1C(=O)N[C@@]1(CCOc3cc(OCC(F)(F)F)ccc31)C2` [Compound I-67]: the 50% inhibitory concentration (IC50) came out at 0.671 nM.

On to `CCOc1ccc2c(c1)CC[C@@]21Cn2nc(-c3ccc(F)cc3)c(NC(=O)CS(C)(=O)=O)c2C(=O)N1` [Compound I-68], for which the IC50 is 4.04 nM.

Turning to `CCOc1ccc2c(c1)CC[C@@]21Cn2nc(-c3ccc(F)c(F)c3)c(NC(=O)CS(C)(=O)=O)c2C(=O)N1` [Compound I-69], the half-inhibitory concentration (IC50) was found to be 2.78 nM.

As for `CS(=O)(=O)CC(=O)Nc1c(-c2ccc(F)cc2)nn2c1C(=O)N[C@]1(CCOc3cc(OCC(F)(F)F)ccc31)C2` [Compound I-70], the half-inhibitory concentration (IC50) was determined as 2.6 nM.

With `CS(=O)(=O)CC(=O)Nc1c(-c2ccc(F)c(F)c2)nn2c1C(=O)N[C@]1(CCOc3cc(OCC(F)(F)F)ccc31)C2` [Compound I-71], the IC50 was found to be 1.8 nM.

Take `CS(=N)(=O)CC(=O)Nc1c(-c2ccc(Cl)c(F)c2)nn2c1C(=O)N[C@@]1(CCc3cc(OCC(F)(F)F)ccc31)C2` (some centres unmarked) [Compound I-73]: the IC50 stood at 2.82 nM.

On to `Cc1ccc(-c2nn3c(c2NC(=O)CS(C)(=O)=O)C(=O)N[C@@]2(CCc4cc(OCCCC(F)(F)F)ccc42)C3)nc1` [Compound I-74], for which the IC50 turned out to be 1.06 nM.

With `Cc1ccc(-c2nn3c(c2NC(=O)CS(C)(=O)=O)C(=O)N[C@]2(CCc4cc(OCCCC(F)(F)F)ccc42)C3)nc1` [Compound I-75], the concentration for half-maximal inhibition (IC50) came to 1.47 nM.

In the case of `Cc1ccc(-c2nn3c(c2NC(=O)CS(C)(=O)=O)C(=O)N[C@]2(CCc4cc(OCC(F)(F)F)ccc42)C3)cc1` [Compound I-76], the 50% inhibitory concentration (IC50) was 1.94 nM.

Regarding `Cc1cccc(-c2nn3c(c2NC(=O)CS(C)(=O)=O)C(=O)N[C@]2(CCc4cc(OCC(F)(F)F)ccc42)C3)c1` [Compound I-77], the IC50 was 2.54 nM.

On to `Cc1ccccc1-c1nn2c(c1NC(=O)CS(C)(=O)=O)C(=O)N[C@]1(CCc3cc(OCC(F)(F)F)ccc31)C2` [Compound I-78], for which the IC50 was found to be 88.3 nM.

For `CS(=O)(=O)CC(=O)Nc1c(-c2ccc(C(F)F)cc2)nn2c1C(=O)N[C@]1(CCc3cc(OCC(F)(F)F)ccc31)C2` [Compound I-80], the half-maximal inhibitory concentration (IC50) worked out at 1.28 nM.

Consider `CS(=O)(=O)CC(=O)Nc1c(-c2ccc(C(F)(F)F)cc2)nn2c1C(=O)N[C@]1(CCc3cc(OCC(F)(F)F)ccc31)C2` [Compound I-81], for which the IC50 was determined as 1.54 nM.

For the compound `COc1ccc(-c2nn3c(c2NC(=O)CS(C)(=O)=O)C(=O)N[C@]2(CCc4cc(OCC(F)(F)F)ccc42)C3)cc1` [Compound I-82], the half-inhibitory concentration (IC50) worked out at 6.51 nM.

Turning to `CS(=O)(=O)CC(=O)Nc1c(-c2ccc(OC(F)(F)F)cc2)nn2c1C(=O)N[C@]1(CCc3cc(OCC(F)(F)F)ccc31)C2` [Compound I-83], the IC50 was 4.37 nM.

As to `CS(=O)(=O)CC(=O)Nc1c(-c2ccc(OC(F)F)cc2)nn2c1C(=O)N[C@]1(CCc3cc(OCC(F)(F)F)ccc31)C2` [Compound I-84], the half-inhibitory concentration (IC50) is 2.51 nM.

In the case of `CS(=O)(=O)CC(=O)Nc1c(-c2ccc(C3CC3)cc2)nn2c1C(=O)N[C@]1(CCc3cc(OCC(F)(F)F)ccc31)C2` [Compound I-85], the concentration for half-maximal inhibition (IC50) came to 2.88 nM.

Turning to `CS(=O)(=O)CC(=O)Nc1c(-c2ccc(OC3CC3)cc2)nn2c1C(=O)N[C@]1(CCc3cc(OCC(F)(F)F)ccc31)C2` [Compound I-86], the IC50 amounted to 131 nM.

For the compound `CS(=O)(=O)CC(=O)Nc1c(-c2ccc(C#N)cc2)nn2c1C(=O)N[C@]1(CCc3cc(OCC(F)(F)F)ccc31)C2` [Compound I-87], the half-inhibitory concentration (IC50) was 2.55 nM.

Consider `Cc1cc(-c2nn3c(c2NC(=O)CS(C)(=O)=O)C(=O)N[C@]2(CCc4cc(OCC(F)(F)F)ccc42)C3)ccc1F` [Compound I-88], for which the IC50 amounted to 1.17 nM.

On to `CS(=O)(=O)CC(=O)Nc1c(-c2ccc(F)c(F)c2)nn2c1C(=O)N[C@]1(CCc3cc(OCC(F)(F)F)ccc31)C2` [Compound I-89], for which the half-inhibitory concentration (IC50) was 0.761 nM.

Consider `Cc1ccc(-c2nn3c(c2NC(=O)CS(C)(=O)=O)C(=O)N[C@]2(CCc4cc(OCC(F)(F)F)ccc42)C3)cc1F` [Compound I-90], for which the IC50 amounted to 1.1 nM.

In the case of `Cc1cc(F)ccc1-c1nn2c(c1NC(=O)CS(C)(=O)=O)C(=O)N[C@]1(CCc3cc(OCC(F)(F)F)ccc31)C2` [Compound I-91], the IC50 worked out at 19.5 nM.

Regarding `CS(=O)(=O)CC(=O)Nc1c(-c2cc(F)c(F)c(F)c2)nn2c1C(=O)N[C@]1(CCc3cc(OCC(F)(F)F)ccc31)C2` [Compound I-92], the half-inhibitory concentration (IC50) was determined as 0.585 nM.

For the compound `CC(C)(O)c1ccc(-c2nn3c(c2NC(=O)CS(C)(=O)=O)C(=O)N[C@]2(CCc4cc(OCC(F)(F)F)ccc42)C3)cc1` [Compound I-93], the half-maximal inhibitory concentration (IC50) was 9.47 nM.

On to `CS(=O)(=O)CC(=O)Nc1c(CCC2CC2)nn2c1C(=O)N[C@]1(CCc3cc(OCC(F)(F)F)ccc31)C2` [Compound I-94], for which the IC50 was found to be 1.08 nM.

For `CCCCCc1nn2c(c1NC(=O)CS(C)(=O)=O)C(=O)N[C@]1(CCc3cc(OCC(F)(F)F)ccc31)C2` [Compound I-95], the concentration for half-maximal inhibition (IC50) turned out to be 1.48 nM.
